Read-outs that look alike come from different tables or passages of the source.
Legend:
[1] = system: human kidney tubule cell line HK-2; test: LDH assay of cell death in HK-2 cells treated with statin and/or oxysterol; assay type: cell-based; settings: 1 μM zaragozic acid with 10 μg/mL 25-hydroxycholesterol
Procedure: To analyze the relationship between statins and oxysterols, the human kidney tubule cell line HK-2 (human kidney-2 cell line; ATCC CRL-2190™) was seeded into a 24-well plate at a density of 1×10^5 per well. […] Subsequently, the cells were cultured in an incubator at 37° C. under 5% CO2 for 72 hours, and then the degree of cell death in each well was analyzed using an LDH assay kit (Takara, Cat #. MK401).
In order to examine whether the same results appear even in the presence of various types of oxysteols, an experiment was performed in the same manner as Example 1.1. As statin, 5 μM of atorvastatin was used, and as oxysterols, 0.1 μg/mL of 25-hydroxycholesterol, 7-ketocholesterol, cholesterol 5,6-epoxide, 24-hydroxycholesterol and 27-hydroxycholesterol were used.
In order to examine whether isoprenoid-based compounds can reduce adverse effects which are induced by co-administration of oxysterol and statin, the cell line was treated with oxysterol (0.1 μg/mL of 25-hydroxycholestyerol) and statin (5 μM of atorvastatin) in the same manner as Example 1.1, and treated with 10 μM of farnesyl pyrophosphate, 200 μM of mevalonate or 10 μM of geranylgeranyl pyrophosphate, which is an isoprenoid-based compound.

[2] = system: neutrophil gelatinase-associated lipocalin (NGAL); test: Kidney NGAL immunohistochemistry in fluvastatin-fed mice given mevalonate and lipopolysaccharide (Example 6); assay type: in vivo, mouse; settings: mevalonate 30 mg/kg i.p. 4 days
Procedure: (§1) In order to examine whether administration of an isoprenoid-based compound reduces statin-induced adverse effects even in vivo, 100 mg of statin (fluvastatin) was added to 1 kg of feed, and the mixture was fed to 8-week-old C57BL6/J mice for 14 days. Subsequently, mevalonate was administered intraperitoneally to the mice at a dose of 30 mg per kg of mouse body weight for 4 consecutive days, and then lipopolysaccharide (SIGMA) was administered intraperitoneally to mice at a lipopolysaccharide dose of 12 mg per kg of mouse body weight, thereby producing oxysterol in the mouse body. 72 hours after administration of the lipopolysaccharide, the mice were euthanized, and then kidney tissue was extracted by performing cardiac perfusion with 4% paraformaldehyde in DPBS (Dulbecco's phosphate-buffered saline). The extracted kidney tissue was subjected to H & E (Hematoxylin & Eosin) staining, PAS (periodic acid-Schiff) staining and immunohistochemistry of neutrophil gelatinase-associated lipocalin (NGAL) that is an early diagnostic marker of acute renal failure, thereby determining whether acute kidney damage and acute renal failure would occur. In addition, the concentrations of total cholesterol, high-density lipoprotein (HDL) and low-density lipoprotein (LDL) were measured.

[3] = Total cholesterol, HDL and LDL concentrations in mice (Example 6); assay type: in vivo, mouse; settings: statin, oxysterol and mevalonate all administered
Procedure: as §1

C57BL6/J mice = assay type: in vivo, mouse; settings: for therapeutic effect on kidney damage (H & E, PAS): mevalonate 30 mg/kg i.p. 4 days
Procedure: as §1

Row | Structure (SMILES) | adverse effects / viability of the cells [1] | expression of NGAL ([2]; oxysterol generation induced after administration of statin) | therapeutic effect on expression of NGAL ([2]; oxysterol generation induced without statin) | concentration of low-density lipoprotein [3] | concentration of total cholesterol [3] | therapeutic effect on kidney damage (H & E, PAS) (C57BL6/J mice; group with statin and oxysterol co-administered) | therapeutic effect on kidney damage (H & E, PAS) (C57BL6/J mice; kidney damage caused by oxysterol formation, no statin) | damage to kidney tissue (C57BL6/J mice; statin, oxysterol and mevalonate all administered)
1 | C=C(CC[C@]12O[C@H](C(=O)O)[C@@](O)(C(=O)O)[C@](C(=O)O)(O1)[C@H](OC(=O)/C=C/[C@@H](C)C[C@@H](C)CC)[C@H]2O)[C@@H](OC(C)=O)[C@H](C)Cc1ccccc1 [zaragozic acid] | the adverse effects were reduced to some degrees, and thus the viability of the cells increased |  |  |  |  |  |  | 
2 | CC(O)(CCO)CC(=O)O (centres unmarked) [mevalonate] |  | the expression of NGAL significantly decreased | showed no significant therapeutic effect | decreased | decreased | exhibited a significant effect | showed no therapeutic effect | kidney tissue was not damaged
